Reference: the supplement of paper PMC10307832

Assays:
Experiment in all cases: relative viability (nuclei count vs DMSO), 5 days (fraction); higher = more cells survive
[1] = tested on: NCI-H2085
Procedure, shortened: (§1)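 Dosing by pin tool came one day after lung cancer cell lines were seeded in 1536-well plates, using either one drug or a fixed anchor-drug dose plus five library-drug doses (not always all listed) in √10 steps. After 5 days, nuclei were counted on 4× images. Relative viability is treated-well nuclei count divided by vehicle-well nuclei count, and values are medians of duplicate plates.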

[2] = tested on: A-427
Procedure, shortened: as §1

[3] = tested on: HARA
Procedure, shortened: as §1

[4] = tested on: NCI-H596
Procedure, shortened: as §1

[5] = tested on: NCI-H661
Procedure, shortened: as §1

[6] = tested on: NCI-H2126
Procedure, shortened: as §1

[7] = tested on: NCI-H1651
Procedure, shortened: as §1

[8] = tested on: NCI-H520
Procedure, shortened: as §1

[9] = tested on: ABC-1
Procedure, shortened: as §1

[10] = tested on: NCI-H460
Procedure, shortened: as §1

[11] = tested on: RERF-LC-KJ
Procedure, shortened: as §1

[12] = tested on: NCI-H727
Procedure, shortened: as §1

[13] = tested on: NCI-H1666
Procedure, shortened: as §1

[14] = tested on: BEN
Procedure, shortened: as §1

[15] = tested on: NCI-H1734
Procedure, shortened: as §1

[16] = tested on: LOU-NH91
Procedure, shortened: as §1

[17] = tested on: NCI-H647
Procedure, shortened: as §1

[18] = tested on: NCI-H1975
Procedure, shortened: as §1

[19] = tested on: LCLC-103H
Procedure, shortened: as §1

[20] = tested on: CAL-12T
Procedure, shortened: as §1

[21] = tested on: NCI-H838
Procedure, shortened: as §1

[22] = tested on: NCI-H1944
Procedure, shortened: as §1

Cc1cn(-c2cc(NC(=O)c3ccc(C)c(Nc4nccc(-c5cccnc5)n4)c3)cc(C(F)(F)F)c2)cn1 [Nilotinib] + C[C@]1(O)C[C@@H](c2nc(-c3ccc4ccc(-c5ccccc5)nc4c3)c3c(N)nccn32)C1 [Linsitinib] (partner 1 µM)
relative viability ([1]; first compound 0.001 µM): 0.864 | relative viability ([1]; first compound 0.003162 µM): 1.08 | relative viability ([1]; first compound 0.01 µM): 1.15 | relative viability ([1]; first compound 0.03162 µM): 0.888 | relative viability ([1]; first compound 0.1 µM): 0.884 | relative viability ([2]; first compound 0.001 µM): 1.13 | relative viability ([2]; first compound 0.01 µM): 1.26 | relative viability ([2]; first compound 0.03162 µM): 1.16 | relative viability ([2]; first compound 0.1 µM): 1.01 | relative viability ([3]; first compound 0.001 µM): 0.987 | relative viability ([3]; first compound 0.003162 µM): 1.37 | relative viability ([3]; first compound 0.01 µM): 1.3 | relative viability ([3]; first compound 0.03162 µM): 0.742 | relative viability ([3]; first compound 0.1 µM): 0.93 | relative viability ([4]; first compound 0.003162 µM): 1.26 | relative viability ([4]; first compound 0.01 µM): 1.28 | relative viability ([4]; first compound 0.03162 µM): 0.812 | relative viability ([5]; first compound 0.001 µM): 0.508 | relative viability ([5]; first compound 0.003162 µM): 0.472 | relative viability ([5]; first compound 0.01 µM): 0.612 | relative viability ([5]; first compound 0.03162 µM): 0.501 | relative viability ([5]; first compound 0.1 µM): 0.586 | relative viability ([6]; first compound 0.001 µM): 0.684 | relative viability ([6]; first compound 0.003162 µM): 0.806 | relative viability ([6]; first compound 0.01 µM): 0.827 | relative viability ([6]; first compound 0.03162 µM): 0.779 | relative viability ([6]; first compound 0.1 µM): 0.666 | relative viability ([7]; first compound 0.001 µM): 1.08 | relative viability ([7]; first compound 0.003162 µM): 1.42 | relative viability ([7]; first compound 0.01 µM): 1.32 | relative viability ([7]; first compound 0.03162 µM): 0.879 | relative viability ([7]; first compound 0.1 µM): 1.06 | relative viability ([8]; first compound 0.001 µM): 0.792 | relative viability ([8]; first compound 0.01 µM): 1.2 | relative viability ([8]; first compound 0.03162 µM): 0.91 | relative viability ([8]; first compound 0.1 µM): 0.928 | relative viability ([9]; first compound 0.001 µM): 0.985 | relative viability ([9]; first compound 0.003162 µM): 0.862 | relative viability ([9]; first compound 0.01 µM): 0.724 | relative viability ([9]; first compound 0.03162 µM): 0.683 | relative viability ([9]; first compound 0.1 µM): 0.554 | relative viability ([10]; first compound 0.001 µM): 0.586 | relative viability ([10]; first compound 0.003162 µM): 1.1 | relative viability ([10]; first compound 0.01 µM): 1.75 | relative viability ([10]; first compound 0.03162 µM): 0.319 | relative viability ([10]; first compound 0.1 µM): 0.507 | relative viability ([11]; first compound 0.001 µM): 0.882 | relative viability ([11]; first compound 0.003162 µM): 0.941 | relative viability ([11]; first compound 0.01 µM): 1.05 | relative viability ([11]; first compound 0.03162 µM): 0.853 | relative viability ([11]; first compound 0.1 µM): 0.917 | relative viability ([12]; first compound 0.001 µM): 0.225 | relative viability ([12]; first compound 0.01 µM): 0.368 | relative viability ([12]; first compound 0.03162 µM): 0.275 | relative viability ([12]; first compound 0.1 µM): 0.263 | relative viability ([13]; first compound 0.001 µM): 0.854 | relative viability ([13]; first compound 0.003162 µM): 0.954 | relative viability ([13]; first compound 0.01 µM): 0.74 | relative viability ([13]; first compound 0.03162 µM): 0.911 | relative viability ([13]; first compound 0.1 µM): 0.945 | relative viability ([14]; first compound 0.001 µM): 0.95 | relative viability ([14]; first compound 0.003162 µM): 0.997 | relative viability ([14]; first compound 0.01 µM): 1.26 | relative viability ([14]; first compound 0.1 µM): 1.05 | relative viability ([15]; first compound 0.001 µM): 0.882 | relative viability ([15]; first compound 0.003162 µM): 0.977 | relative viability ([15]; first compound 0.01 µM): 0.972 | relative viability ([15]; first compound 0.03162 µM): 0.669 | relative viability ([15]; first compound 0.1 µM): 0.561 | relative viability ([16]; first compound 0.001 µM): 0.929 | relative viability ([16]; first compound 0.003162 µM): 1.01 | relative viability ([16]; first compound 0.01 µM): 0.976 | relative viability ([16]; first compound 0.03162 µM): 0.926 | relative viability ([16]; first compound 0.1 µM): 0.917 | relative viability ([17]; first compound 0.001 µM): 1.13 | relative viability ([17]; first compound 0.003162 µM): 1.43 | relative viability ([17]; first compound 0.03162 µM): 1.07 | relative viability ([17]; first compound 0.1 µM): 1.02 | relative viability ([18]; first compound 0.001 µM): 0.913 | relative viability ([18]; first compound 0.003162 µM): 1.23 | relative viability ([18]; first compound 0.01 µM): 1.03 | relative viability ([18]; first compound 0.03162 µM): 0.688 | relative viability ([18]; first compound 0.1 µM): 0.822 | relative viability ([19]; first compound 0.001 µM): 1.19 | relative viability ([19]; first compound 0.003162 µM): 1.17 | relative viability ([19]; first compound 0.03162 µM): 0.783 | relative viability ([19]; first compound 0.1 µM): 1.17 | relative viability ([20]; first compound 0.001 µM): 0.75 | relative viability ([20]; first compound 0.003162 µM): 0.771 | relative viability ([20]; first compound 0.01 µM): 0.946 | relative viability ([20]; first compound 0.03162 µM): 0.714 | relative viability ([20]; first compound 0.1 µM): 0.565 | relative viability ([21]; first compound 0.001 µM): 0.989 | relative viability ([21]; first compound 0.003162 µM): 1.37 | relative viability ([21]; first compound 0.01 µM): 1.39 | relative viability ([21]; first compound 0.03162 µM): 0.967 | relative viability ([21]; first compound 0.1 µM): 0.968 | relative viability ([22]; first compound 0.001 µM): 1.08 | relative viability ([22]; first compound 0.003162 µM): 1.41 | relative viability ([22]; first compound 0.01 µM): 1.5 | relative viability ([22]; first compound 0.03162 µM): 1.33 | relative viability ([22]; first compound 0.1 µM): 1.36
